Consider eight compounds from patent publication US20100173935A1, “Muscarinic Receptor Agonists that are Effective in the Treatment of Pain, Alzheimer's Disease and Schizophrenia” (AstraZeneca AB, priority 2006, published 2010).

The term EC50 denotes the concentration needed to bring the measured effect to its halfway point.

This experiment addresses T1, hM1 (human Muscarinic receptor subtype 1) (Homo sapiens, UniProt P11229).
T1 construct: expressed in transfected cells; host or cells: CHO cells (ATCC)
T1 sequence (P11229 1-460): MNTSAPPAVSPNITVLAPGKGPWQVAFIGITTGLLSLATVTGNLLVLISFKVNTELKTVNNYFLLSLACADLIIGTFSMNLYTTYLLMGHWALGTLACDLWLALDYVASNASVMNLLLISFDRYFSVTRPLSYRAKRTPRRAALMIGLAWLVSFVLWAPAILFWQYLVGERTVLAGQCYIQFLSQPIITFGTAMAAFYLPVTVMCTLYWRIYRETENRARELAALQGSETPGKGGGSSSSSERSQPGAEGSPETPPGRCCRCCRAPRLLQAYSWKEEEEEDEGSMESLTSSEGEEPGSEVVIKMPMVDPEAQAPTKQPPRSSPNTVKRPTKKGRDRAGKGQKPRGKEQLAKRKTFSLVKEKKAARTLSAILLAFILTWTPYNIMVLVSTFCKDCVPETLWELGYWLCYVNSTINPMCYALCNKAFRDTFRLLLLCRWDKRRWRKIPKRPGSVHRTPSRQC
Description: Human M1 calcium mobilization FLIPR assay. The experiment is classed as cell-based. As to conditions: CHO cells expressing hM1, Ca2+ release. Here is the method: The compound activity in the present invention (EC50 or IC50) was measured using a 384 plate-based imaging assay that monitors drug induced intracellular Ca^2+ release in whole cells. Activation of hM1 (human Muscarinic receptor subtype 1, gene bank access NM_000738), rM1 (rat Muscarinic receptor subtype 1, gene bank access NM_080773), hM3 (human Muscarinic receptor subtype 3, gene bank access NM_000740NM_000740) and hM5 (human Muscarinic receptor subtype 5, gene bank access NM_0121258), receptors expressed in CHO cells (chinese hamster ovary cells, ATCC) was quantified in a Molecular Devices FLIPR II™ instrument as an increase in fluorescent signal. Inhibition of hM3 and hM5 by compounds was determined by the decrease in fluorescent signal in response to 20 nM carbachol activation.
CHO cells were plated in 384-black polylysine coated plate (Costar) at 8000 cells/well/50 μl for 24 hours or 4000 cells/well for 48 hours in a humidified incubator (5% CO2 and 37° C.) in DMEM/F12 medium without selection agent. Prior to the experiment the cell culture medium was removed from the plates by inversion. A loading solution of 30 μl of Hank's balanced salt solution, 10 mM Hepes and 2.5 mM Probenicid at Ph 7.4 (Cat no. 311-520-VL, Wisent) with 2 μM calcium indicator dye (FLUO-3AM, Molecular Probes F14202) was added to each well. Plates were incubated at 37° C. for 60 minutes prior to start the experiment. The incubation was terminated by washing the cells four times in assay buffer, leaving a residual 25 μl buffer per well. Cell plates were then transferred to the FLIPR, ready for compound additions.
The day of experiment, carbachol and compounds were diluted in three-fold concentration range (10 points serial dilution) for addition by FLIPR instrument. For all calcium assays, a baseline reading was taken for 30 seconds followed by the addition of 12.5 μl (25 μl for hM1 and rM1) of compounds, resulting in a total well volume of 37.5 μl (50 μl for hM1 and rM1). Data were collected every 1.6 seconds for 300 seconds. For hM3 and hM5 an additional 12.5 μl of carbachol (20 nM final) was added at 300 seconds. After this addition of carbachol (producing a final volume of 50 μl), the FLIPR continued to collect data every 2 seconds for 240 seconds. The fluorescence emission was read using filter 1 (emission 520-545 nm) by the FLIPR on board CCD camera.
Calcium mobilization output data were calculated as the maximal relative fluorescence unit (RFU) minus the minal value for both compound and agonist reading frame (except for hM1 and rM1 using only the maximal RFU). Data were analyzed using sigmoidal fits of a non-linear curve-fitting program (XLfit version 5.0.6 from ID Business Solutions Limited, Guildford, UK). All EC50 and IC50 values are reported as arithmetic means±standard error of mean of ‘n’ independent experiments.
(Calcium flux is commonly read through the fluorescence of an indicator in the cells.)

Consider `CCOC(=O)N1CC[C@H](N2CCC(n3c(=O)[nH]c4ccc(C)cc43)CC2)C1` (single isomer, unassigned) [Example 37], for which the EC50 was 0.6 nM.

Turning to `CCOC(=O)N1CCC(N2CCC(=C3C(=O)Nc4ccccc43)CC2)C1` (centres unmarked) [Example 12, Ethyl 3-[4-(2-oxo-1,2-dihydro-3H-indol-3-ylidene)piperidin-1-yl]pyrrolidine-1-carboxylate], the EC50 turned out to be 2690 nM.

On to `CCOC(=O)N1CCC(N2C3CCC2CC(n2c(=O)[nH]c4ccccc42)C3)C1` (centres unmarked) [Example 30, Ethyl 3-[3-(2-oxo-2,3-dihydro-1H-benzimidazol-1-yl)-8-azabicyclo[3.2.1]oct-8-yl]pyrrolidine-1-carboxylate], for which the EC50 was determined as 518 nM.

`CCOC(=O)N1CCC(N2CCC(n3c(=O)[nH]c4ccc(C)cc43)CC2)C1` (single isomer, unassigned) [Example 38]: the EC50 amounted to 7.9 nM.

As to `CCOC(=O)N1CCC(N2CCC(n3c(=O)n(C)c4ccccc43)CC2)C1` (centres unmarked) [Example 10, Ethyl 3-[4-(3-methyl-2-oxo-2,3-dihydro-1H-benzimidazol-1-yl)piperidin-1-yl]pyrrolidine-1-carboxylate], the EC50 was 286 nM.

Regarding `CCOC(=O)N1CCC(N2CCC(n3nnc4ccccc43)CC2)C1` (centres unmarked) [Example 11, ethyl 3-[4-(1H-1,2,3-benzotriazol-1-yl)piperidin-1-yl]pyrrolidine-1-carboxylate], the EC50 was 612 nM.

For the compound `Cn1cccc1C(=O)N1CC[C@H](N2CCC(n3c(=O)[nH]c4ccccc43)CC2)C1` [Example 21, 1-(1-{(3S)-1-[(1-methyl-1H-pyrrol-2-yl)carbonyl]pyrrolidin-3-yl}piperidin-4-yl)-1,3-dihydro-2H-benzimidazol-2-one], the EC50 was determined as 1180 nM.

Turning to `CCOC(=O)N1CC[C@H](N2CCC(n3c(=O)[nH]c4ccc(OC)cc43)CC2)C1` (single isomer, unassigned) [Example 39], the EC50 is 21.9 nM.
